Laboratory results from patent US20220117941A1, “CARBAMATE COMPOUND AND USE OF FORMULATION COMPRISING SAME IN PREVENTING, ALLEVIATING, OR TREATING ACUTE STRESS DISORDER OR POST-TRAUMATIC STRESS DISORDER” (SK BIOPHARMACEUTICALS CO., LTD., priority 2018, published 2022).
Where a name gives a salt, the structure may show the parent alone.

How the values were obtained:
[1] = test system: rats in which post-traumatic stress disorder was induced by single prolonged stress (SPS); assay: Forced swimming test in rats with post-traumatic stress disorder induced by single prolonged stress (SPS); format: in vivo, rats (Sprague-Dawley); conditions: SPS-induced PTSD rats; 30 mg/kg orally for 15 days; FIGS. 1 to 3
Description: Adult male rats (Sprague-Dawley, 200 to 230 g) were used. The experimental animals were maintained at a light-and-darkness cycle of 12 hours (illuminated from 7 pm to 7 am), a temperature of 22 to 25° C., a relative humidity of 40 to 60%, and free access to water and food. […]
(§1) Post-traumatic stress disorder was induced in Group 2 and Group 3 as described above. […] All experimental animals were measured daily for changes in mortality and body weight to determine whether post-traumatic stress disorder was well induced. […]
To carry out a forced swimming test in the rats of Groups 1 to 3, water of 25° C. was filled to a height of 30 cm in a transparent cylinder (20 cm in diameter×50 cm in height). […] After 24 hours, rats were inserted into the cylinder for 5 minutes and the escape behavior of rats was recorded and measured using a video camera. […] Climbing behavior measured the time to climb upward, immobility behavior measured the time to not escape, and swimming behavior measured the time to move horizontally in the cylinder. […]

[2] = test system: blood corticoid; assay: Measurement of corticoid in blood of SPS-induced post-traumatic stress disorder rats (ELISA); format: in vivo, rats (Sprague-Dawley); conditions: SPS-induced PTSD rats; 30 mg/kg orally for 15 days; vs vehicle-treated PTSD-induced rats; FIG. 4
Description: Adult male rats (Sprague-Dawley, 200 to 230 g) were used. The experimental animals were maintained at a light-and-darkness cycle of 12 hours (illuminated from 7 pm to 7 am), a temperature of 22 to 25° C., a relative humidity of 40 to 60%, and free access to water and food. The animals were randomly divided into three groups as follows: • Eight (8) rats as a control group, orally administered with saline as a vehicle at a dose volume of 3 ml/kg (Group 1) • Seven (7) rats in which post-traumatic stress disorder was induced, and saline as a vehicle was then orally administered at a dose volume of 3 ml/kg (Group 2) • Seven (7) rats in which post-traumatic stress disorder was induced, and Test Compound was then orally administered at a dose of 30 mg/kg (3 ml/kg) (Group 3) […]
as §1
Rats were sacrificed rapidly by decapitation on the day after the forced swimming test, and blood was quickly collected via the abdominal aorta. […] The corticoid concentration was measured by enzyme-linked immunoassay (ELISA) using a Novus Biologicals Corticosterone kit. The results were measured by means of an ELISA reader (MultiRead 400) to calculate the concentration of corticoid. […]

[3] = test system: mice (CD-1); assay: Forced swimming test in mice with combination of Test Compound and selective serotonergic reuptake inhibitor; format: in vivo; conditions: CD-1 mice, 30 min after injection, FIG. 5
Description: Adult mice (CD-1) were used. The experimental animals were maintained at a light-and-darkness cycle of 12 hours (illuminated from 7 pm to 7 am), a temperature of 22 to 25° C., a relative humidity of 40 to 60%, and free access to water and food. The animals were randomly divided into four groups as follows: • Eight (8) mice as a control group, administered with intraperitoneal injection of saline as a vehicle at a dose volume of 10 ml/kg (Group 1) • Eight (8) mice as an experimental group, administered with intraperitoneal injection of Test Compound at a dose of 5 mg/kg (10 ml/kg) (Group 2) • Eight (8) mice as an experimental group, administered with intraperitoneal injection of fluoxetine hydrochloride at a dose of 10 mg/kg (10 ml/kg) (Group 3) • Eight (8) mice as an experimental group, administered with intraperitoneal injection of Test Compound at a dose of 5 mg/kg (10 ml/kg) and fluoxetine hydrochloride at a dose of 10 mg/kg (10 ml/kg) (Group 4)
To perform a forced swimming test in the mice of Groups 1 to 4, water of 25° C. was filled to a height of 20 cm in a transparent cylinder. […] The results are represented in FIG. 5.
Statistical analysis was carried out by using one-way ANOVA in Prism 7.04.

| SMILES | efficacy on symptoms associated with post-traumatic stress disorder (climbing, immobility and swimming behaviors in forced swimming test) [1] | blood corticoid concentration [2] | immobility time in forced swimming test (Test Compound alone) ([3]; 5 mg/kg intraperitoneal) | immobility time in forced swimming test (fluoxetine alone) ([3]; fluoxetine hydrochloride 10 mg/kg intraperitoneal) |
| --- | --- | --- | --- | --- |
| NC(=O)O[C@@H](Cn1ncnn1)c1ccccc1Cl [Test Compound] | showing efficacy on alleviating symptoms associated with post-traumatic stress disorder | statistically significant reduction | ineffective dose |  |
| CNCCC(Oc1ccc(C(F)(F)F)cc1)c1ccccc1 (stereo not shown) [fluoxetine, fluoxetine hydrochloride, reference compound] |  |  |  | ineffective dose |
